Experimental data reported in PMC3724358 (The journal of physical chemistry. B, 2011).
Numbering of substitutions follows the chain as printed. pKd: −log10 of the molar value.

Key:
[1] = molecular target: T1, Ht cyt c552 (Hydrogenobacter thermophilus cytochrome c552) (Hydrogenobacter thermophilus, UniProt P15452, M77A); experiment: protein film voltammetry titration, pyrolytic graphite edge electrode; type: binding
T1 sequence (P15452 19-98 M77A): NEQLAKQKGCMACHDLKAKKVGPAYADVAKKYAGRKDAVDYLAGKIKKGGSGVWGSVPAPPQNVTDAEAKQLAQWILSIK

[2] = molecular target: T2, Ht cyt c552 (Hydrogenobacter thermophilus cytochrome c552) (Hydrogenobacter thermophilus, UniProt P15452); experiment: as above; type: binding
T2 sequence (P15452 19-98): T1 sequence (P15452 19-98 M77A) with A59M

c1c[nH]cn1 [Im, imidazole]
pKd [1]: 3.12 | pKd [2]: 2.62
